# Assay results from ChEMBL document CHEMBL1201862, “PubChem BioAssay data set” (2004).
#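 Assay format: 96-well plates, 48-hour exposure. The concentration for 50% growth inhibition is given as GI50.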 Calls of active or inactive are those of the source. No stated cut-off is given here; in the data, active = GI50 up to about 1.1 µM and inactive = higher.
# Legend:
# Assay in all cases: NCI-60 cell line screen, 48 h
# OVCAR-3 = tested on: OVCAR-3
# SF-539 = tested on: SF-539
# OVCAR-4 = tested on: OVCAR-4
# LXFL 529 = tested on: LXFL 529
# RXF 393 = tested on: RXF 393
# SNB-78 = tested on: SNB-78
# CCRF-CEM = tested on: CCRF-CEM
# SW-620 = tested on: SW-620
# SK-MEL-2 = tested on: SK-MEL-2
# DMS-273 = tested on: DMS-273
# SK-OV-3 = tested on: SK-OV-3
# UACC-62 = tested on: UACC-62
# CAKI-1 = tested on: CAKI-1
# UO-31 = tested on: UO-31
# Malme-3M = tested on: Malme-3M
# DMS-114 = tested on: DMS-114
# HOP-18 = tested on: HOP-18
# HCT-15 = tested on: HCT-15
# IGROV-1 = tested on: IGROV-1
# HL-60 = tested on: HL-60
# U-251 = tested on: U-251
# HT-29 = tested on: HT-29
# OVCAR-5 = tested on: OVCAR-5
# NCI-H226 = tested on: NCI-H226
# SN12C = tested on: SN12C
# M19-MEL = tested on: M19-MEL
# LOX IMVI = tested on: LOX IMVI
# RXF 631 = tested on: RXF 631
# SF-268 = tested on: SF-268
# SF-295 = tested on: SF-295
# RPMI-8226 = tested on: RPMI-8226
# HCC 2998 = tested on: HCC 2998
# KM12 = tested on: KM12
# ACHN = tested on: ACHN
# COLO 205 = tested on: COLO 205
# SK-MEL-28 = tested on: SK-MEL-28
# XF498 = tested on: XF498
# HOP-62 = tested on: HOP-62
# MOLT-4 = tested on: MOLT-4
# UACC-257 = tested on: UACC-257
# DLD-1 = tested on: DLD-1
# A498 = tested on: A498
# NCI-H23 = tested on: NCI-H23
# 786-0 = tested on: 786-0
# SNB-75 = tested on: SNB-75
# NCI-H460 = tested on: NCI-H460
# SK-MEL-5 = tested on: SK-MEL-5
# M14 = tested on: M14
# K562 = tested on: K562
# KM-20L2 = tested on: KM-20L2
# HOP-92 = tested on: HOP-92
# A549 = tested on: A549
# SR = tested on: SR
# OVCAR-8 = tested on: OVCAR-8
# SNB-19 = tested on: SNB-19
# EKVX = tested on: EKVX
# HCT-116 = tested on: HCT-116
# NCI-H522 = tested on: NCI-H522
# TK-10 = tested on: TK-10
smiles,measurement,setting,value
CCOC(=O)NC1C2CC(=O)C(O2)C1OCc1ccccc1 (stereo not given),GI50,OVCAR-3,> 100 µM (inactive)
same,GI50,SF-539,> 100 µM (inactive)
same,GI50,OVCAR-4,> 100 µM (inactive)
same,GI50,LXFL 529,> 100 µM (inactive)
same,GI50,RXF 393,> 100 µM (inactive)
same,GI50,SNB-78,> 100 µM (inactive)
same,GI50,CCRF-CEM,> 100 µM (inactive)
same,GI50,SW-620,> 100 µM (inactive)
same,GI50,SK-MEL-2,> 100 µM (inactive)
same,GI50,DMS-273,> 100 µM (inactive)
same,GI50,SK-OV-3,> 100 µM (inactive)
same,GI50,UACC-62,> 100 µM (inactive)
same,GI50,CAKI-1,> 100 µM (inactive)
same,GI50,UO-31,78 µM (inactive)
same,GI50,Malme-3M,> 100 µM (inactive)
same,GI50,DMS-114,> 100 µM (inactive)
same,GI50,HOP-18,> 100 µM (inactive)
same,GI50,HCT-15,> 100 µM
same,GI50,IGROV-1,> 100 µM (inactive)
same,GI50,HL-60,> 100 µM (inactive)
same,GI50,U-251,> 100 µM (inactive)
same,GI50,HT-29,> 100 µM (inactive)
same,GI50,OVCAR-5,> 100 µM (inactive)
same,GI50,NCI-H226,> 100 µM (inactive)
same,GI50,SN12C,> 100 µM (inactive)
same,GI50,M19-MEL,> 100 µM (inactive)
same,GI50,LOX IMVI,> 100 µM (inactive)
same,GI50,RXF 631,> 100 µM (inactive)
same,GI50,SF-268,> 100 µM (inactive)
same,GI50,SF-295,> 100 µM (inactive)
same,GI50,RPMI-8226,> 100 µM (inactive)
same,GI50,HCC 2998,> 100 µM (inactive)
same,GI50,KM12,> 100 µM (inactive)
same,GI50,ACHN,> 100 µM (inactive)
same,GI50,COLO 205,> 100 µM (inactive)
same,GI50,SK-MEL-28,> 100 µM (inactive)
same,GI50,XF498,> 100 µM (inactive)
same,GI50,HOP-62,> 100 µM (inactive)
same,GI50,MOLT-4,> 100 µM (inactive)
same,GI50,UACC-257,> 100 µM (inactive)
same,GI50,DLD-1,> 100 µM (inactive)
same,GI50,A498,> 100 µM (inactive)
same,GI50,NCI-H23,> 100 µM (inactive)
same,GI50,786-0,> 100 µM (inactive)
same,GI50,SNB-75,> 100 µM (inactive)
same,GI50,NCI-H460,> 100 µM (inactive)
same,GI50,SK-MEL-5,> 100 µM (inactive)
same,GI50,M14,> 100 µM (inactive)
same,GI50,K562,> 100 µM (inactive)
same,GI50,KM-20L2,> 100 µM (inactive)
same,GI50,HOP-92,> 100 µM (inactive)
same,GI50,A549,> 100 µM (inactive)
COc1cc2c(Cc3cc(OCc4ccccc4)ccc3N)nccc2c(OC)c1OC,GI50,OVCAR-3,> 10 µM (inactive)
same,GI50,SF-539,> 10 µM (inactive)
same,GI50,SR,> 10 µM (inactive)
same,GI50,LXFL 529,> 10 µM (inactive)
same,GI50,RXF 393,> 10 µM (inactive)
same,GI50,SNB-78,> 10 µM (inactive)
same,GI50,CCRF-CEM,> 10 µM (inactive)
same,GI50,SW-620,> 10 µM (inactive)
same,GI50,OVCAR-8,> 10 µM (inactive)
same,GI50,SK-MEL-2,> 10 µM (inactive)
same,GI50,DMS-273,> 10 µM (inactive)
same,GI50,SK-OV-3,> 10 µM (inactive)
same,GI50,UACC-62,> 10 µM (inactive)
same,GI50,SNB-19,> 10 µM (inactive)
same,GI50,UO-31,> 10 µM (inactive)
same,GI50,Malme-3M,> 10 µM (inactive)
same,GI50,DMS-114,> 10 µM (inactive)
same,GI50,HOP-18,> 10 µM (inactive)
same,GI50,HCT-15,> 10 µM
same,GI50,IGROV-1,> 10 µM (inactive)
same,GI50,HL-60,> 10 µM (inactive)
same,GI50,U-251,> 10 µM (inactive)
same,GI50,HT-29,> 10 µM (inactive)
same,GI50,OVCAR-5,> 10 µM (inactive)
same,GI50,NCI-H226,> 10 µM (inactive)
same,GI50,SN12C,> 10 µM (inactive)
same,GI50,EKVX,> 10 µM (inactive)
same,GI50,M19-MEL,> 10 µM (inactive)
same,GI50,LOX IMVI,> 10 µM (inactive)
same,GI50,RXF 631,6.55 µM (inactive)
same,GI50,SF-268,> 10 µM (inactive)
same,GI50,SF-295,> 10 µM (inactive)
same,GI50,RPMI-8226,> 10 µM (inactive)
same,GI50,HCC 2998,> 10 µM (inactive)
same,GI50,KM12,> 10 µM (inactive)
same,GI50,ACHN,> 10 µM (inactive)
same,GI50,COLO 205,> 10 µM (inactive)
same,GI50,SK-MEL-28,> 10 µM (inactive)
same,GI50,XF498,> 10 µM (inactive)
same,GI50,HOP-62,> 10 µM (inactive)
same,GI50,MOLT-4,> 10 µM (inactive)
same,GI50,UACC-257,> 10 µM (inactive)
same,GI50,DLD-1,> 10 µM (inactive)
same,GI50,NCI-H23,> 10 µM (inactive)
same,GI50,HCT-116,> 10 µM (inactive)
same,GI50,NCI-H522,> 10 µM (inactive)
same,GI50,786-0,> 10 µM (inactive)
same,GI50,SNB-75,> 10 µM (inactive)
same,GI50,NCI-H460,> 10 µM (inactive)
same,GI50,SK-MEL-5,> 10 µM (inactive)
same,GI50,M14,> 10 µM (inactive)
same,GI50,K562,> 10 µM (inactive)
same,GI50,KM-20L2,> 10 µM (inactive)
same,GI50,HOP-92,> 10 µM (inactive)
same,GI50,TK-10,> 10 µM (inactive)
same,GI50,A549,> 10 µM (inactive)
O=C(O)CC(O)(c1ccccc1C(=O)O)c1cccc2ccccc12 (stereo not given),GI50,OVCAR-3,> 100 µM (inactive)
same,GI50,SF-539,> 100 µM (inactive)
same,GI50,SR,> 100 µM (inactive)
same,GI50,OVCAR-4,> 100 µM (inactive)
same,GI50,LXFL 529,> 100 µM (inactive)
same,GI50,RXF 393,> 100 µM (inactive)
same,GI50,SNB-78,> 100 µM (inactive)
same,GI50,CCRF-CEM,> 100 µM (inactive)
same,GI50,SW-620,> 100 µM (inactive)
same,GI50,OVCAR-8,> 100 µM (inactive)
same,GI50,SK-MEL-2,> 100 µM (inactive)
same,GI50,DMS-273,> 100 µM (inactive)
same,GI50,SK-OV-3,> 100 µM (inactive)
same,GI50,UACC-62,> 100 µM (inactive)
same,GI50,SNB-19,> 100 µM (inactive)
same,GI50,CAKI-1,> 100 µM (inactive)
same,GI50,UO-31,> 100 µM (inactive)
same,GI50,Malme-3M,> 100 µM (inactive)
same,GI50,DMS-114,> 100 µM (inactive)
same,GI50,HOP-18,> 100 µM (inactive)
same,GI50,HCT-15,> 100 µM
same,GI50,IGROV-1,> 100 µM (inactive)
same,GI50,HL-60,> 100 µM (inactive)
same,GI50,U-251,> 100 µM (inactive)
same,GI50,HT-29,> 100 µM (inactive)
same,GI50,OVCAR-5,> 100 µM (inactive)
same,GI50,NCI-H226,> 100 µM (inactive)
same,GI50,SN12C,> 100 µM (inactive)
same,GI50,EKVX,> 100 µM (inactive)
same,GI50,M19-MEL,> 100 µM (inactive)
same,GI50,LOX IMVI,> 100 µM (inactive)
same,GI50,RXF 631,> 100 µM (inactive)
same,GI50,SF-268,> 100 µM (inactive)
same,GI50,SF-295,> 100 µM (inactive)
same,GI50,RPMI-8226,> 100 µM (inactive)
same,GI50,KM12,> 100 µM (inactive)
same,GI50,ACHN,> 100 µM (inactive)
same,GI50,COLO 205,> 100 µM (inactive)
same,GI50,SK-MEL-28,> 100 µM (inactive)
same,GI50,XF498,> 100 µM (inactive)
same,GI50,HOP-62,> 100 µM (inactive)
same,GI50,MOLT-4,> 100 µM (inactive)
same,GI50,UACC-257,> 100 µM (inactive)
same,GI50,DLD-1,> 100 µM (inactive)
same,GI50,A498,> 100 µM (inactive)
same,GI50,NCI-H23,> 100 µM (inactive)
same,GI50,HCT-116,> 100 µM (inactive)
same,GI50,NCI-H522,> 100 µM (inactive)
same,GI50,786-0,> 100 µM (inactive)
same,GI50,SNB-75,> 100 µM (inactive)
same,GI50,NCI-H460,> 100 µM (inactive)
same,GI50,SK-MEL-5,> 100 µM (inactive)
same,GI50,M14,> 100 µM (inactive)
same,GI50,K562,> 100 µM (inactive)
same,GI50,HOP-92,> 100 µM (inactive)
same,GI50,TK-10,> 100 µM (inactive)
same,GI50,A549,> 100 µM (inactive)
